# Measured values from patent US6897210B2, “Quinazoline derivatives and pharmaceutical compositions containing them” (Zeneca Limited, priority 1996, dated 2005).
# Where a name gives a salt, the structure may show the parent alone.
# System: VEGF receptor tyrosine kinase (Flt, KDR)
# Assay: In vitro receptor tyrosine kinase inhibition test (VEGF receptor)
# Format: biochemical
# Settings: VEGF receptor tyrosine kinase compared with EGF receptor tyrosine kinase
# From the text: (a) In Vitro Receptor Tyrosine Kinase Inhibition Test
# This assay determines the ability of a test compound to inhibit tyrosine kinase activity. […] These may then be expressed in a suitable expression system to obtain polypeptide with tyrosine kinase activity. […] This recombinant construct was co-transfected into insect cells (for example Spodoptera frugiperda 21(Sf21)) with viral DNA (eg Pharmingen BaculoGold) to prepare recombinant baculovirus.
# For expression of cFlt tyrosine kinase activity, Sf21 cells were infected with plaque-pure cFlt recombinant virus at a multiplicity of infection of 3 and harvested 48 hours later. […] The suspension was centrifuged for 10 minutes at 13,000 rpm at 4° C., the supernatant (enzyme stock) was removed and stored in aliquots at −70° C. Each new batch of stock enzyme was titrated in the assay by dilution with enzyme diluent (100 mM Hepes pH 7.4, 0.2 mM sodium orthovanadate. 0.1% v/v Triton X100, 0.2 mM dithiothreitol). For a typical batch, stock enzyme is diluted 1 in 2000 with enzyme diluent and 50 μl of dilute enzyme is used for each assay well.
# A stock of substrate solution was prepared from a random copolymer containing tyrosine, for example Poly (Glu, Ala, Tyr) 6:3:1 (Sigma P3899), stored as 1 mg/ml stock in PBS at −20° C. and diluted 1 in 500 with PBS for plate coating.
# On the day of the assay the substrate solution was discarded and the assay plate wells were washed once with PBST (PBS containing 0.05% v/v Tween 20) and once with 50 mM Hepes pH7.4.
# Test compounds were diluted with 10% dimethylsulphoxide (DMSO) and 25 μl of diluted compound was transferred to wells in the washed assay plates. “Total” control wells contained 10% DMSO instead of compound. Twenty five microliters of 40 mM manganese(II)chloride containing 8 μM adenosine-5′-triphosphate (ATP) was added to all test wells except “blank” control wells which contained maganese(II)chloride without ATP. To start the reactions 50 μl of freshly diluted enzyme was added to each well and the plates were incubated at room temperature for 20 minutes. The liquid was then discarded and the wells were washed twice with PBST. […] Plates were then incubated for 20-60 minutes at room temperature until the optical density value of the “total” control wells, measured at 405 nm using a plate reading spectrophotometer, was approximately 1.0.
row,Structure (SMILES),activity against VEGF and EGF receptor tyrosine kinases
1,"COCCOCCOc1cc2ncnc(Nc3ccc(Cl)cc3F)c2cc1OC.Cl [Example 5, 4-(4-chloro-2-fluoroanilino)6-methoxy-7-(2(2-methoxyethoxy)ethoxy)quinazoline hydrochloride]",substantially equivalent activity
2,"COc1cc2c(Nc3ccc(Cl)cc3F)ncnc2cc1OCC1OCCO1 [Example 6, 4-(4-chloro-2-fluoroanilino)-7-(1,3-dioxolan-2-ylmethoxy)-6-methoxyquinazoline]",substantially equivalent activity
3,"COc1cc2c(Nc3ccc(Cl)cc3F)ncnc2cc1OCC#CCN1CCOCC1.Cl.O [Example 10, 4-(4-chloro-2-fluoroanilino)-6-methoxy-7-(4-morpholinobut-2-yn-1-yloxy)quinazoline hydrochloride hydrate]",substantially equivalent activity
4,"COc1cc2c(Nc3ccc(Cl)cc3F)ncnc2cc1OCCN1CCSCC1 [Example 12, 4-(4-chloro-2-fluoroanilino)-6-methoxy-7-(2-thiomorpholinoethoxy)quinazoline]",substantially equivalent activity
5,"COc1cc2c(Nc3ccc(Cl)cc3F)ncnc2cc1OCCCS(C)(=O)=O [Example 16, 4-(4-chloro-2-fluoroanilino)-6-methoxy-7-(3-(methylsulphonyl)propoxy)quinazoline]",substantially equivalent activity
6,COc1cc2c(Nc3ccc(Cl)cc3F)ncnc2cc1OC/C=C/CN1CCCC1.Cl [Example 17],substantially equivalent activity
7,"COc1cc2c(Nc3ccc(Cl)cc3F)ncnc2cc1OCCNC(=O)OC(C)(C)C [Example 34, 7-(2-[N-tert-butoxycarbonylamino]ethoxy)4-(4-chloro-2-fluoroanilino)6-methoxyquinazoline]",substantially equivalent activity
8,"COc1cc2c(Nc3ccc(Cl)cc3F)ncnc2cc1OCCN1CCCC1=O.Cl [Example 39, 4-(4-chloro-2-fluoroanilino)6-methoxy-7-(2-(2-oxopyrrolidin-1-yl)ethoxy)quinazoline hydrochloride]",substantially equivalent activity
9,"COc1cc2c(Nc3ccc(Cl)cc3F)ncnc2cc1OCCCN1CCCC1=O.Cl [Example 47, 4-(4-chloro-2-fluoroanilino)-6-methoxy-7-(3-(2-oxopyrrolidin-1-yl)propoxy)quinazoline hydrochloride]",substantially equivalent activity
10,COc1cc2c(Nc3ccc(Br)cc3F)ncnc2cc1OCCCN1CCCC1=O.Cl [Example 48],substantially equivalent activity
11,"COc1cc2c(Nc3ccc(Br)cc3F)ncnc2cc1OCCCN(C)S(C)(=O)=O.Cl [Example 49, 4(4bromo-2-fluoroanilino)-6-methoxy-7-(3([N-methyl-N-methylsulphonyl]amino)propoxy)quinazoline hydrochloride]",substantially equivalent activity
12,"COc1cc2c(Nc3ccc(Br)cc3F)ncnc2cc1OCCCN1CCC[C@H]1C(N)=O.Cl [Example 50, (S)-4-(4-bromo-2-fluoroanilino)-7-(3-(2-carbamoylpyrrolidin-1-yl)propoxy)6-methoxyquinazoline hydrochloride]",substantially equivalent activity
13,"COCC(=O)N(C)CCOc1cc2ncnc(Nc3ccc(Cl)cc3F)c2cc1OC.Cl [Example 51, 4-(4-chloro-2-fluoroanilino) methoxy-7-(2-([N-methyl-N-methoxyacetyl]amino)ethoxy)quinazoline hydrochloride]",substantially equivalent activity
14,"COc1cc2c(Nc3ccc(Cl)cc3F)ncnc2cc1OCCN1CCOCC1=O.Cl [Example 52, 4-(4-chloro-2-fluoroanilino)6-methoxy-7-(2-(3-oxomorpholino)ethoxy)quinazoline hydrochloride]",substantially equivalent activity
15,"COc1cc2c(Nc3ccc(Cl)cc3F)ncnc2cc1OCCOCCN1CCOCC1.Cl [Example 53, 4-(4-chloro-2-fluoroanilino)-6-methoxy-7-(22-morpholinoethoxy)ethoxy)quinazoline hydrochloride]",substantially equivalent activity
16,"COc1cc2c(Nc3ccc(Cl)cc3F)ncnc2cc1OCCCN1CCC[C@H]1C(N)=O.Cl [Example 54, (S)-7-(3-(2-carbamoylpyrrolidin-1-yl)propoxy)4-(4-chloro-2-fluoroanilino)-6-methoxyquinazoline hydrochloride]",substantially equivalent activity
17,"COc1cc2c(Nc3ccc(Cl)cc3F)ncnc2cc1OCCCN1CC(C)OC(C)C1.Cl (stereo not shown) [Example 55, 4-(4-chloro-2-fluoroanilino)7(3(2,6-dimethylmorpholino)propoxy)6-methoxyquinazoline hydrochloride]",substantially equivalent activity
18,"Cl.Fc1cc(Cl)ccc1NCOc1ncnc2cc(SCCCN3CCOCC3)ccc12 [Example 56, 4-(4-chloro-2-fluoroanilino)methoxy-7-(3-morpholinopropylthio)quinazoline hydrochloride]",substantially equivalent activity
19,COc1cc2c(Nc3ccc(Cl)cc3F)ncnc2cc1OCCCN(C)S(C)(=O)=O.Cl [Example 59],substantially equivalent activity
20,COc1cc2c(Nc3ccc(Cl)cc3F)ncnc2cc1OCCOCCN1CCN(C)CC1.Cl [Example 63],substantially equivalent activity
21,"COc1cc2c(Nc3ccc(Cl)cc3F)ncnc2cc1OCCOCCN1CCCC1.Cl [Example 64, 4-(4-chloro-2-fluoroanilino)-6-methoxy-7-(2-(2-pyrrolidin-1-ylethoxy)ethoxy)quinazoline hydrochloride]",substantially equivalent activity
22,"COc1cc2c(Nc3ccc(Cl)cc3F)ncnc2cc1OC/C=C/CN1CCOCC1.Cl [Example 66, (E)-4-(4-chloro-2-fluoroanilino)-6-methoxy-7-(4-morpholinobut-2-en-1-yloxy)quinazoline hydrochloride]",substantially equivalent activity
23,"COc1cc2c(Nc3ccc(Br)cc3F)ncnc2cc1OCCN1CCOCC1=O.Cl [Example 67, 4-(4-bromo-2-fluoroanilino)-6-methoxy-7-(2-(3 oxomorpholino)ethoxy)quinazoline hydrochloride]",substantially equivalent activity
24,"COc1cc2c(Nc3ccc(Br)cc3F)ncnc2cc1OCCN1CCCC1=O.Cl [Example 68, 4-(4-bromo-2-fluoroanilino)methoxy-7-(2-(2-oxpyrrolidin-1-yl)ethoxy)quinazoline hydrochloride]",substantially equivalent activity

# System: not given
# Assay: not given
# Settings: not given
row,Structure (SMILES),melting point
1,COc1cc2ncnc(Nc3ccc(C)c(O)c3)c2c([N+](=O)[O-])c1OC.Cl,206 to 208 °C
2,"COc1cc2c(Nc3ccc(Cl)cc3F)ncnc2cc1OCCCS(C)(=O)=O (as salt: hydrochloride) [Example 16, 4-(4-chloro-2-fluoroanilino)-6-methoxy-7-(3-(methylsulphonyl)propoxy)quinazoline]",> 250 °C
3,"COc1cc2c(Nc3ccc(Cl)cc3F)ncnc2cc1OCC#CCN1CCOCC1.Cl.O (hydrate or solvate) [Example 10, 4-(4-chloro-2-fluoroanilino)-6-methoxy-7-(4-morpholinobut-2-yn-1-yloxy)quinazoline hydrochloride hydrate]",175 to 178 °C
4,"COCCOc1cc2ncnc(Nc3ccc(C)c(OC(C)=O)c3)c2cc1OC [Example 1, 4-(3-acetoxy-4-methylanilino)-6-methoxy-7-(2-methoxyethoxy)quinazoline]",180 to 183 °C
5,"COc1cc2c(Nc3ccc(Cl)cc3F)ncnc2cc1OCCN1CCSCC1 [Example 12, 4-(4-chloro-2-fluoroanilino)-6-methoxy-7-(2-thiomorpholinoethoxy)quinazoline]",181 to 182 °C
6,"COc1cc2c(Nc3ccc(Cl)cc3F)ncnc2cc1OCCS(C)(=O)=O [Example 30, 4-(4-chloro-2-fluoroanilino)-6-methoxy-7-(2-methylsulphonylethoxy)quinazoline]",227 to 230 °C
7,"COc1cc2c(Nc3ccc(Br)cc3F)ncnc2cc1OCCCS(C)(=O)=O [Example 32, 4-(4-bromo-2-fluoroanilino)6-methoxy-7-(3-methylsulphonylpropoxy)quinazoline]",> 250 °C
8,"COc1cc2c(Nc3ccc(Cl)cc3F)ncnc2cc1OCCNC(=O)OC(C)(C)C [Example 34, 7-(2-[N-tert-butoxycarbonylamino]ethoxy)4-(4-chloro-2-fluoroanilino)6-methoxyquinazoline]",190 to 191 °C
9,"COc1cc2c(Nc3ccc(Cl)cc3F)ncnc2cc1OCCN1C(=O)CCCC1=O [Example 35, 4-(4-chloro-2-fluoroanilino)-7-(2-(2,6-dioxopiperidino)ethoxy)-6-methoxyquinazoline]",202 to 203 °C
10,"COc1cc2c(Nc3ccc(Cl)cc3F)ncnc2cc1OCCN1CCCC1=O.Cl [Example 39, 4-(4-chloro-2-fluoroanilino)6-methoxy-7-(2-(2-oxopyrrolidin-1-yl)ethoxy)quinazoline hydrochloride]",250 to 252 °C
